Experiment [1] concerns the target PcaR transcription factor (Pseudomonas putida, UniProt Q52154). The settings on record: for biosensor response (OD600 increase / tetracycline resistance) in words: plasmids S3/S2, 25 μg/ml tetracycline, 12 hours growth; for linear response range: plasmids S3/S2, E. coli K12, tetracycline medium, 12 hours, exogenously added dicarboxylic acid; for dynamic range (maximum difference in OD600 between fully induced samples and samples without dicarboxylic acid), ranking in words: plasmids S3/S2, compared among the four dicarboxylic acids.
Method: The X-axis is the concentration of exogenous dicarboxylic acid supplemented to the growth medium; the Y-axis is the cell culture density (OD600) after 12 hours growth in medium supplemented with 25 μg/ml tetracycline. E. coli strain “PcaR (+)” comprises plasmids S3/S2 and produces the tetracycline resistance protein upon exogenous addition of dicarboxylic acids. E. coli strain “PcaR (−)” comprises plasmids S1/S2 and produces a negative control protein, PcaI, upon exogenous addition of the indicated dicarboxylic acids.
Three plasmids were used to characterize biosensor response to exogenously added butanedioic acid, pentanedioic acid, hexanedioic acid and heptanedioic acid. The constructed plasmids employ the beta-keto hexanedioic acid and hexanedioic responsive transcription factor, PcaR, and the PcaR-responsive promoters, PPcaR (SEQ ID NO: 16) and PPcaIJ (SEQ ID NO:17), from Pseudomonas putida. Plasmid 51 harbors the P. putida gene pcaI under transcriptional control of it native PPcaIJ promoter on an E. coli vector backbone with ampicillin resistance marker and ColE1 origin of replication. Plasmid S3 harbors the tetA tetracycline resistance gene under control of the PcaIJ promoter on an E. coli vector backbone with ampicillin resistance marker and ColE1 origin of replication. Plasmid S2 harbors the pcaR transcription factor gene under control of its native PPcaR promoter on an E. coli vector backbone comprising a chloramphenicol resistance marker and pSC101 origin of replication.
E. coli strain K12 was co-transformed with either plasmids S1/S2 or S3/S2 and individual colonies isolated from LB agar plates (Cb^50, Cm^50). Colonies were grown in 25 ml LB broth (Cb^50, Cm^50) until reaching an optical density at 600 nm (OD600) of approximately 0.50, at which point cell stocks were prepared and stored at −80° C.; cell stocks were comprised of 0.5 ml cell culture and 0.5 ml of a 50% v/v glycerol solution.
Biosensor experiments were performed with butanedioic acid, pentanedioic acid, hexanedioic acid, and heptanedioic acid. An aliquot of biosensor cell stock was thawed and used to inoculate 50 ml of LB medium (Cb^50, Cm^50) in a 250 ml, baffled Erlenmeyer flask. Cultures were incubated for 2 hours at 37° C.; subsequently, 0.6 ml biosensor culture was added to 48-well plates prepared with 2.3 ml LB medium (Cb^50, Cm^50) supplemented with tetracycline and dicarboxylic acid at the desired concentration (n=4). Plates were than grown at 30° C. on an orbital titer plate shaker (Lab Line Instruments). Following 12 hours incubation, 200 μl samples were taken for OD600 measurement (Tecan Ultra).

Experiment [2] deals with E. coli DcuS-DcuR two-component system. Particulars: plasmid S4 (PDctA-tetA), E. coli K12, 25 μg/ml tetracycline, 12 hours, exogenously added acid.
Method: This example describes a dicarboxylic acid-responsive two-component system of the invention comprised of the E. coli DcuS-DcuR proteins expressed in a wild type E. coli K12 host.
(§1) E. coli strain K12 was transformed with plasmids S4, S5, or S6 and individual colonies isolated from LB agar plates (Cb^50). Colonies were grown in 25 ml LB broth (Cb^50) until reaching an optical density at 600 nm (OD600) of approximately 0.50, at which point cell stocks were prepared and stored at −80° C.; cell stocks comprised 0.5 ml cell culture and 0.5 ml of 50% v/v glycerol in water.
(§2) Biosensor experiments were performed with butanedioic acid. An aliquot of biosensor cell stock was thawed and used to inoculate 50 ml of LB medium (Cb^50) in a 250 ml, baffled Erlenmeyer flask. […] Plates were grown at 30° C. on an orbital titer plate shaker (Lab Line Instruments). Following 12 hours incubation, 200 μl samples were taken for OD600 measurement (Tecan Ultra).
For experiment [3] the test system is unchanged. The settings on record: plasmids S5 (PDcuB#21) or S6 (PDcuB#22), 25 μg/ml tetracycline.
Method: as §1, §2

Chain of PcaR transcription factor (Q52154 whole entry L6P/V7A/D9E/P10S/V11A/P15S/S20A/A21P/M23L/S96T/G197D/H210N/P212A): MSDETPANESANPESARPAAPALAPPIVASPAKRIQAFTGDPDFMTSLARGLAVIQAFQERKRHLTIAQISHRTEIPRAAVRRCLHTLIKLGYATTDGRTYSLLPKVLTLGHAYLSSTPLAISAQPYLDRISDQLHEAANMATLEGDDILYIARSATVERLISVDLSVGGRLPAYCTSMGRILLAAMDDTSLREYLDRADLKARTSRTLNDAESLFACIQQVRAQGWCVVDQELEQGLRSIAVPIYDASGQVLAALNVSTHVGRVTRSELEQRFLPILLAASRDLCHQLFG

Turning to `O=C(O)CCCCC(=O)O` [hexanedioic acid], in experiment [1], the “biosensor response (OD600 increase / tetracycline resistance) in words” value is recorded as “dicarboxylic acid-dependent increases in tetracycline resistance”; the linear response range is 0.25 to 6 mM; the “dynamic range (maximum difference in OD600 between fully induced samples and samples without dicarboxylic acid), ranking in words” value is “highest dynamic range”.

Turning to `O=C(O)CCC(=O)O` [butanedioic acid], the “dynamic range of biosensor response” value in experiment [2] was “over 1.2 OD600 units”. Moreover, in experiment [3], the “growth of biosensor cultures versus acid concentration, in words” value is listed as “grew under all butanedioic acid concentrations tested”. Moreover, in experiment [1], the “biosensor response (OD600 increase / tetracycline resistance) in words” value is reported as “dicarboxylic acid-dependent increases in tetracycline resistance” and the linear response range is 1.5 to 4 mM.

Consider `O=C(O)CCCC(=O)O` [pentanedioic acid], for which, in experiment [1], the “biosensor response (OD600 increase / tetracycline resistance) in words” value was “dicarboxylic acid-dependent increases in tetracycline resistance” and the linear response range lay within 1 to 2.5 mM.

As for `O=C(O)CCCCCC(=O)O` [heptanedioic acid], in experiment [1], the “biosensor response (OD600 increase / tetracycline resistance) in words” value is reported as “dicarboxylic acid-dependent increases in tetracycline resistance”; the linear response range was in the range of 0.5 to 6 mM; the “dynamic range (maximum difference in OD600 between fully induced samples and samples without dicarboxylic acid), ranking in words” value is “highest dynamic range”.

The values are drawn from US8652804B2, “Transcription factor-based biosensors for detecting dicarboxylic acids” (priority 2011, dated 2014).
